Source: ChEMBL document CHEMBL4406812, “Synthesis of quinones with highlighted biological applications: A critical update on the strategies towards bioactive compounds with emphasis on lapachones” (Eur J Med Chem, 2019)

Legend:
OVCAR-8 = assay: Cytotoxicity against human OVCAR8 cells assessed as reduction in cell viability after 48 hrs; type: functional, cell-based; conditions: OVCAR-8, 48 h
SF-295 [1] = assay: Cytotoxicity against human SF295 cells assessed as reduction in cell viability after 48 hrs; type: functional, cell-based; conditions: SF-295, 48 h
MDA-MB-435 [2] = assay: Cytotoxicity against human MDA-MB-435 cells assessed as reduction in cell viability after 48 hrs; type: functional, cell-based; conditions: MDA-MB-435, 48 h
PC-3 [3] = assay: Cytotoxicity against human PC3 cells assessed as reduction in cell viability after 48 hrs; type: functional, cell-based; conditions: PC-3, 48 h
HL-60 [4] = assay: Cytotoxicity against human HL60 cells assessed as reduction in cell viability after 48 hrs; type: functional, cell-based; conditions: HL-60, 48 h
HCT-116 [5] = assay: Cytotoxicity against human HCT116 cells assessed as reduction in cell viability after 48 hrs; type: functional, cell-based; conditions: HCT-116, 48 h
MDA-MB-435 [6] = assay: Cytotoxicity against human MDA-MB-435 cells assessed as reduction in cell viability after 72 hrs by MTT assay; type: functional, cell-based; conditions: MDA-MB-435, 72 h
MCF7 = assay: Anticancer activity against human MCF7 cells; type: functional, cell-based
NCI-H358 = assay: Cytotoxicity against human NCI-H358 cells assessed as reduction in cell viability after 72 hrs by MTT assay; type: functional, cell-based; conditions: NCI-H358, 72 h
SW-620 [7] = assay: Cytotoxicity against human SW620 cells assessed as reduction in cell viability after 72 hrs by MTT assay; type: functional, cell-based; conditions: SW-620, 72 h
Hs-578T [8] = assay: Cytotoxicity against human Hs 578T cells assessed as reduction in cell viability after 72 hrs by MTT assay; type: functional, cell-based
HCT-8 [9] = assay: Cytotoxicity against human HCT8 cells assessed as reduction in cell viability after 72 hrs by MTT assay; type: functional, cell-based; conditions: HCT-8, 72 h
Hs-578T [10] = assay: Cytotoxicity against human Hs578T cells assessed as reduction in cell viability after 72 hrs by MTT assay; type: functional, cell-based
SF-295 [11] = assay: Cytotoxicity against human SF295 cells assessed as reduction in cell viability after 72 hrs by MTT assay; type: functional, cell-based; conditions: SF-295, 72 h
Trypanosoma cruzi [12] = assay: Anti-parasitic activity against amastigote form of Trypanosoma cruzi after 24 hrs; type: functional, organism-based
Trypanosoma cruzi [13] = assay: Anti-parasitic activity against Trypanosoma cruzi; type: functional, organism-based
MDA-MB-435 [14] = assay: Anticancer activity against human MDA-MB-435 cells; type: functional, cell-based
L02 = assay: Cytotoxicity against human LO2 cells assessed as reduction in cell viability after 48 hrs by MTT assay; type: functional, cell-based; conditions: L02, 48 h
HepG2 = assay: Cytotoxicity against human HepG2 cells assessed as reduction in cell viability after 48 hrs by MTT assay; type: functional, cell-based; conditions: HepG2, 48 h
Trypanosoma cruzi [15] = assay: Anti-parasitic activity against trypomastigotes form of Trypanosoma cruzi after 24 hrs; type: functional, organism-based
Trypanosoma cruzi [16] = assay: Trypanocidal activity against Trypanosoma cruzi Y strain bloodstream trypomastigotes after 24 hrs; type: functional, organism-based
HL-60 [17] = assay: Anticancer activity against human HL60 cells; type: functional, cell-based
UACC-62 = assay: Anticancer activity against human UACC62 cells; type: functional, cell-based
HCT-8 [18] = assay: Anticancer activity against human HCT8 cells; type: functional, cell-based
K562 = assay: Anticancer activity against human K562 cells; type: functional, cell-based
SF-268 = assay: Anticancer activity against human SF268 cells; type: functional, cell-based
HCT-116 [19] = assay: Anticancer activity against human HCT116 cells; type: functional, cell-based
PC-3 [20] = assay: Anticancer activity against human PC3 cells; type: functional, cell-based
MOLT-4 = assay: Anticancer activity against human MOLT4 cells; type: functional, cell-based
SF-295 [21] = assay: Anticancer activity against human SF295 cells; type: functional, cell-based
PBMC = assay: Cytotoxicity against human PBMC; type: cell-based
NCI-H460 = assay: Anticancer activity against human NCI-H460 cells; type: functional, cell-based
Jurkat = assay: Anticancer activity against human Jurkat cells; type: functional, cell-based
MDA-MB-231 = assay: Anticancer activity against human MDA-MB-231 cells; type: functional, cell-based
Hs-578T [22] = assay: Anticancer activity against human Hs578T cells; type: functional, cell-based
MX1 = assay: Anticancer activity against human MX1 cells; type: functional, cell-based
DU-145 = assay: Anticancer activity against human DU145 cells; type: functional, cell-based
SW-620 [23] = assay: Anticancer activity against human SW620 cells; type: functional, cell-based
HL-60 [24] = assay: Cytotoxicity against human HL60 cells assessed as reduction in cell viability after 72 hrs by MTT assay; type: functional, cell-based; conditions: HL-60, 72 h
L929 = assay: Anticancer activity against mouse L929 cells; type: functional, cell-based
Trypanosoma cruzi [25] = assay: Anti-parasitic activity against epimastigotes form of Trypanosoma cruzi; type: functional, organism-based
Trypanosoma cruzi [26] = assay: Trypanocidal activity against Trypanosoma cruzi Y strain bloodstream trypomastigotes isolated from infected Swiss mouse after 24 hrs by Neubauer chamber method; type: functional, organism-based

## CC1(C)OC2=C(C(=O)C(=O)c3ccccc32)C1Nc1cccc(-c2cn(C[Se]c3ccccc3)nn2)c1 (stereo unspecified)
OVCAR-8
  IC50: < 0.1 µM
SF-295 [1]
  IC50: < 0.1 µM
MDA-MB-435 [2]
  IC50: < 0.1 µM
PC-3 [3]
  IC50: < 0.1 µM
HL-60 [4]
  IC50: < 0.1 µM
HCT-116 [5]
  IC50: < 0.1 µM

## COc1cccc2c1C(=O)c1c(O)c3c(c(O)c1C2=O)C[C@@](O)(C(=O)CO)C[C@@H]3O[C@H]1C[C@H](N)[C@H](O)[C@H](C)O1 [DOXORUBICIN]
MDA-MB-435 [6]
  IC50: 0.03 to 0.88 µM
MCF7
  IC50: 0.36 µM
NCI-H358
  IC50: 0.9 µM
SW-620 [7]
  IC50: 0.77 µM
Hs-578T [8]
  IC50: 0.83 µM
HCT-8 [9]
  IC50: 0.03 µM
Hs-578T [10]
  IC50: 0.75 µM
SF-295 [11]
  IC50: 0.03 to 0.88 µM

## CC1(C)Oc2c(c3nc4c5cccnc5c5ncccc5c4nc3c3ccccc23)CC1I (stereo unspecified)
Trypanosoma cruzi [12]
  IC50: 4.9 µM

## Nc1c(I)ccc2c1C(=O)C=CC2=O
Trypanosoma cruzi [13]
  IC50: 0.6 µM

## COc1ccc(/N=C2\C(=O)C3=C(OC(C)(C)CC3)c3ccccc32)cc1
MDA-MB-435 [14]
  IC50: 0.01 µM

## O=C1C(=O)c2ccccc2C2=C1C1(C(=O)Nc3ccc(OC(F)(F)F)cc31)N1NN=NC1=N2 (stereo unspecified)
L02
  IC50: 2.9 to 36.3 µM
HepG2
  IC50: 2.9 to 36.3 µM

## Cc1ccc(Sc2cccc3c2C(=O)C=CC3=O)cc1
Trypanosoma cruzi [15]
  IC50: 2.5 µM

## CC1(C)Cc2c(c3ccccc3c3nc4c5cccnc5c5ncccc5c4nc23)O1
Trypanosoma cruzi [12]
  IC50: 23 µM

## O=C1C=CC(=O)c2c(Sc3ccccc3)cccc21
Trypanosoma cruzi [15]
  IC50: 12.4 µM

## O=C1C=CC(=O)c2c(SCc3ccccc3)cccc21
Trypanosoma cruzi [15]
  IC50: 14.3 µM

## CC1(C)CCc2c(c3ccccc3c3nc4c5cccnc5c5ncccc5c4nc23)O1
Trypanosoma cruzi [12]
  IC50: 4.9 µM

## COc1ccc(I)c2c1C(=O)C=C(C)C2=O
Trypanosoma cruzi [16]
  IC50: 7.57 µM

## O=C1C(=O)c2ccccc2C2=C1C1(C(=O)Nc3c(Cl)cccc31)N1NN=NC1=N2 (stereo unspecified)
L02
  IC50: 2.9 to 36.3 µM
HepG2
  IC50: 2.9 to 36.3 µM

## O=C1C(=O)c2ccccc2C2=C1C1(C(=O)Nc3cc(Br)ccc31)N1NN=NC1=N2 (stereo unspecified)
L02
  IC50: 2.9 to 36.3 µM
HepG2
  IC50: 2.9 to 36.3 µM

## O=C1C=CC(=O)c2c(Sc3ccc(Br)cc3)cccc21
Trypanosoma cruzi [15]
  IC50: 6.6 µM

## CN1C(=O)C2(C3=C(N=C4N=NNN42)c2ccccc2C(=O)C3=O)c2cccc(F)c21 (stereo unspecified)
L02
  IC50: 2.9 to 36.3 µM
HepG2
  IC50: 2.9 to 36.3 µM

## O=C1C(=O)c2ccccc2C2=C1C1(C(=O)Nc3c(C(F)(F)F)cccc31)N1NN=NC1=N2 (stereo unspecified)
L02
  IC50: 2.9 to 36.3 µM
HepG2
  IC50: 2.9 to 36.3 µM

## Cc1cc(C)n2c1C(c1ccc(OCc3cn(C4C5=C(OC4(C)C)c4ccccc4C(=O)C5=O)nn3)cc1)=C1C=CC=[N+]1[B-]2(F)F (stereo unspecified)
HL-60 [17]
  IC50: 0.34 to 2.17 µM
UACC-62
  IC50: 0.34 to 2.17 µM
HCT-8 [18]
  IC50: 0.34 to 2.17 µM
K562
  IC50: 0.34 to 2.17 µM
SF-268
  IC50: 0.34 to 2.17 µM
HCT-116 [19]
  IC50: 0.34 to 2.17 µM
PC-3 [20]
  IC50: 0.34 to 2.17 µM
MOLT-4
  IC50: 0.34 to 2.17 µM
MDA-MB-435 [14]
  IC50: 0.34 to 2.17 µM
SF-295 [21]
  IC50: 0.34 to 2.17 µM
PBMC
  IC50: 3.26 µM
NCI-H460
  IC50: 0.34 to 2.17 µM
Jurkat
  IC50: 0.34 to 2.17 µM
MDA-MB-231
  IC50: 0.34 to 2.17 µM
Hs-578T [22]
  IC50: 0.34 to 2.17 µM
MX1
  IC50: 0.34 to 2.17 µM
DU-145
  IC50: 0.34 to 2.17 µM
SW-620 [23]
  IC50: 0.34 to 2.17 µM

## O=C1C(=O)c2ccccc2C2=C1C1(C(=O)Nc3c(Br)cccc31)N1NN=NC1=N2 (stereo unspecified)
L02
  IC50: 2.9 to 36.3 µM
HepG2
  IC50: 2.9 to 36.3 µM

## O=C1C(=O)c2c(O)cccc2C2=C1CCC(c1ccccc1)O2 (stereo unspecified)
MDA-MB-435 [6]
  IC50: 1.3 µM
HL-60 [24]
  IC50: 1.3 µM
HCT-8 [9]
  IC50: 1.3 µM
SF-295 [11]
  IC50: 1.3 µM

## O=C1C(=O)c2ccccc2C2=C1C1(C(=O)Nc3ccc(F)cc31)N1NN=NC1=N2 (stereo unspecified)
L02
  IC50: 2.9 to 36.3 µM
HepG2
  IC50: 2.9 to 36.3 µM

## CC1(C)OC2=C(C(=O)C(=O)c3ccccc32)[C@H](n2cc(C[Se]c3ccc(F)cc3)nn2)[C@H]1Br
HL-60 [17]
  IC50: 0.59 µM
HCT-116 [19]
  IC50: 0.37 µM
L929
  IC50: 0.36 µM

## CCC(C)OP(=O)(N/N=C1\C(=O)C2=C(OC(C)(C)CC2)c2ccccc21)OC(C)CC (stereo unspecified)
Trypanosoma cruzi [25]
  IC50: 19 µM

## CCOC(=O)/C=C/c1cccc2c1C(=O)C=CC2=O
Trypanosoma cruzi [26]
  IC50: 63.4 µM

## CC(=O)OCC1C2=C(OC1(C)C)c1ccccc1C(=O)C2=O (stereo unspecified)
MCF7
  IC50: 0.6 µM
